Values after ≈ are worked out from the molar mass of the structure shown. Like-named read-outs stand apart in the source and are kept apart here.
Key:
Format in all cases: cell-based
[1] = system: Fusarium virguliforme (Fv); assay: In vitro pathogen growth inhibition assay, Fv
How it was run: (§1)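 Value reported is the compound concentration reaching ≥90% growth inhibition, from OD readings at 24 and 48 h after blank subtraction, confirmed visually. Inoculum was spores diluted in 17% V8 medium, except Rs, using 1.5 mm mycelial plugs in ¼ PDB; actual compound concentration corrected via OD600.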

[2] = system: Rhizoctonia solani (Rs); assay: In vitro pathogen growth inhibition assay, Rs (mycelial plugs); conditions: Rhizoctonia solani, 48 h
How it was run: as §1

[3] = system: Diplodia maydis (Dm); assay: In vitro pathogen growth inhibition assay, Dm; conditions: Stenocarpella maydis, 48 h
How it was run: as §1

[4] = system: Phytophthora capsici (Pc); assay: In vitro pathogen growth inhibition assay, Pc; conditions: 48 h
How it was run: as §1

[5] = system: Collectotrichum graminicola (Cg); assay: In vitro pathogen growth inhibition assay, Cg; conditions: 48 h
How it was run: (§2)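 Spores in 17% V8 liquid medium, or 1.5 mm Rs mycelial plugs in ¼ PDB, incubated with compound; final concentration checked by OD600 for precipitation. OD readings at 24 and 48 h, blank-subtracted, plus visual ratings; value is concentration giving ≥90% growth inhibition.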

[6] = system: Botrtyis cinerea (Bc); assay: In vitro pathogen growth inhibition assay, Bc; conditions: 48 h
How it was run: as §2

[7] = system: Fusarium moniliforme (Fm); assay: In vitro pathogen growth inhibition assay, Fm; conditions: Fusarium verticillioides
How it was run: as §2

[8] = system: Septoria tritici (St); assay: In vitro pathogen growth inhibition assay, St; conditions: Zymoseptoria tritici, 48 h
How it was run: as §2

[9] = ≥90% growth inhibition, 48 hours, vs 2% DMSO control, read-out: Compound Concentration (ppm) sufficient for ≥90% inhibition of Fv
[10] = ≥90% growth inhibition, mycelial plugs, 48 hours, vs 2% DMSO control, read-out: Compound Concentration (ppm) sufficient for ≥90% inhibition of Rs
[11] = ≥90% growth inhibition, 48 hours, vs 2% DMSO control, read-out: Compound Concentration (ppm) sufficient for ≥90% inhibition of Dm
[12] = ≥90% growth inhibition, 48 hours, vs 2% DMSO control, read-out: Compound Concentration (ppm) sufficient for ≥90% inhibition of Pc
[13] = ≥90% growth inhibition, 48 hours, vs 2% DMSO control, read-out: Compound Concentration (ppm) sufficient for ≥90% inhibition of Cg
[14] = ≥90% growth inhibition, 48 hours, vs 2% DMSO control, read-out: Compound Concentration (ppm) sufficient for ≥90% inhibition of Bc
[15] = ≥90% growth inhibition, 48 hours, vs 2% DMSO control, read-out: Compound Concentration (ppm) sufficient for ≥90% inhibition of Fm
[16] = ≥90% growth inhibition, 48 hours, vs 2% DMSO control, read-out: Compound Concentration (ppm) sufficient for ≥90% inhibition of St

IC90 [1, 9] [µg/mL]	IC90 [2, 10] [µg/mL]	IC90 [3, 11] [µg/mL]	IC90 [4, 12] [µg/mL]	IC90 [5, 13] [µg/mL]	IC90 [6, 14] [µg/mL]	IC90 [7, 15] [µg/mL]	IC90 [8, 16] [µg/mL]	IC90 ([1]; concentration sufficient to ≥90% inhibition of growth, 48 hours vs 2% DMSO control, read-out: Compound Concentration (ppm) for ≥90% inhibition, Fv) [µg/mL]	IC90 ([2]; concentration sufficient to ≥90% inhibition of growth, 48 hours vs 2% DMSO control, read-out: Compound Concentration (ppm) for ≥90% inhibition, Rs) [µg/mL]	IC90 ([3]; concentration sufficient to ≥90% inhibition of growth, 48 hours vs 2% DMSO control, read-out: Compound Concentration (ppm) for ≥90% inhibition, Dm) [µg/mL]	IC90 ([4]; concentration sufficient to ≥90% inhibition of growth, 48 hours vs 2% DMSO control, read-out: Compound Concentration (ppm) for ≥90% inhibition, Pc) [µg/mL]	IC90 ([5]; concentration sufficient to ≥90% inhibition of growth, 48 hours vs 2% DMSO control, read-out: Compound Concentration (ppm) for ≥90% inhibition, Cg) [µg/mL]	IC90 ([6]; concentration sufficient to ≥90% inhibition of growth, 48 hours vs 2% DMSO control, read-out: Compound Concentration (ppm) for ≥90% inhibition, Bc) [µg/mL]	IC90 ([7]; concentration sufficient to ≥90% inhibition of growth, 48 hours vs 2% DMSO control, read-out: Compound Concentration (ppm) for ≥90% inhibition, Fm) [µg/mL]	IC90 ([8]; concentration sufficient to ≥90% inhibition of growth, 48 hours vs 2% DMSO control, read-out: Compound Concentration (ppm) for ≥90% inhibition, St) [µg/mL]	SMILES
0.08 (≈ 0.14 µM)	0.08 (≈ 0.14 µM)	2 (≈ 3.49 µM)	50 (≈ 87.3 µM)	0.4 (≈ 0.698 µM)	0.4 (≈ 0.698 µM)	0.08 (≈ 0.14 µM)	≥ 2	–	–	–	–	–	–	–	–	Cc1ccc(F)cc1[C@H](Cn1c(=O)n(C(C)(C)C(=O)NC(C)C)c(=O)c2c(C)c(-n3nccn3)sc21)OCCO [Compound I-245]
0.4 (≈ 0.666 µM)	2 (≈ 3.33 µM)	2 (≈ 3.33 µM)	> 50	0.4 (≈ 0.666 µM)	0.4 (≈ 0.666 µM)	0.08 (≈ 0.133 µM)	≥ 10	–	–	–	–	–	–	–	–	CCc1ccc(F)cc1[C@H](Cn1c(=O)n(C(C)(C)C(=O)NC(C)C)c(=O)c2c(C)c(-n3nccn3)sc21)OCCOC [Compound I-247]
≥ 10	2 (≈ 3.51 µM)	≥ 10	> 50	≥ 10	2 (≈ 3.51 µM)	2 (≈ 3.51 µM)	> 50	–	–	–	–	–	–	–	–	COc1ccc(F)cc1[C@H](Cn1c(=O)n([C@H](C)C(N)=O)c(=O)c2c(C)c(-n3nccn3)sc21)OCC(C)(C)C#N [Compound I-255]
–	–	–	–	–	–	–	–	50 (≈ 87.8 µM)	50 (≈ 87.8 µM)	50 (≈ 87.8 µM)	> 50	50 (≈ 87.8 µM)	50 (≈ 87.8 µM)	10 (≈ 17.6 µM)	> 50	COc1ccc(F)cc1[C@H](Cn1c(=O)n([C@@H](C)C(N)=O)c(=O)c2c(C)c(-n3nccn3)sc21)OCC(C)(C)C#N [Compound I-256]
0.4 (≈ 0.687 µM)	2 (≈ 3.43 µM)	50 (≈ 85.8 µM)	> 50	2 (≈ 3.43 µM)	2 (≈ 3.43 µM)	0.4 (≈ 0.687 µM)	> 50	–	–	–	–	–	–	–	–	COc1ccc(F)cc1[C@H](Cn1c(=O)n(C(C)(C)C(=O)NC(C)C)c(=O)c2c(C)c(-n3cccn3)sc21)OCC#N [Compound I-257]

Further lines, the molecule ahead of its results:

SMILES	IC90 [1, 9] [µg/mL]	IC90 [2, 10] [µg/mL]	IC90 [3, 11] [µg/mL]	IC90 [4, 12] [µg/mL]	IC90 [5, 13] [µg/mL]	IC90 [6, 14] [µg/mL]	IC90 [7, 15] [µg/mL]	IC90 [8, 16] [µg/mL]	IC90 ([1]; concentration sufficient to ≥90% inhibition of growth, 48 hours vs 2% DMSO control, read-out: Compound Concentration (ppm) for ≥90% inhibition, Fv) [µg/mL]	IC90 ([2]; concentration sufficient to ≥90% inhibition of growth, 48 hours vs 2% DMSO control, read-out: Compound Concentration (ppm) for ≥90% inhibition, Rs) [µg/mL]	IC90 ([3]; concentration sufficient to ≥90% inhibition of growth, 48 hours vs 2% DMSO control, read-out: Compound Concentration (ppm) for ≥90% inhibition, Dm) [µg/mL]	IC90 ([4]; concentration sufficient to ≥90% inhibition of growth, 48 hours vs 2% DMSO control, read-out: Compound Concentration (ppm) for ≥90% inhibition, Pc) [µg/mL]	IC90 ([5]; concentration sufficient to ≥90% inhibition of growth, 48 hours vs 2% DMSO control, read-out: Compound Concentration (ppm) for ≥90% inhibition, Cg) [µg/mL]	IC90 ([6]; concentration sufficient to ≥90% inhibition of growth, 48 hours vs 2% DMSO control, read-out: Compound Concentration (ppm) for ≥90% inhibition, Bc) [µg/mL]	IC90 ([7]; concentration sufficient to ≥90% inhibition of growth, 48 hours vs 2% DMSO control, read-out: Compound Concentration (ppm) for ≥90% inhibition, Fm) [µg/mL]	IC90 ([8]; concentration sufficient to ≥90% inhibition of growth, 48 hours vs 2% DMSO control, read-out: Compound Concentration (ppm) for ≥90% inhibition, St) [µg/mL]
COc1ccc(F)cc1[C@H](Cn1c(=O)n([C@@H](C)C(=O)N(C)C(C)C)c(=O)c2c(C)c(-n3cccn3)sc21)OCCO [Compound I-244]	2 (≈ 3.4 µM)	0.4 (≈ 0.681 µM)	10 (≈ 17 µM)	10 (≈ 17 µM)	2 (≈ 3.4 µM)	2 (≈ 3.4 µM)	0.4 (≈ 0.681 µM)	≥ 50	–	–	–	–	–	–	–	–
COCCO[C@@H](Cn1c(=O)n(C(C)(C)C(=O)NC(C)C)c(=O)c2c(C)c(-n3nccn3)sc21)c1cc(F)ccc1C [Compound I-248]	0.4 (≈ 0.682 µM)	10 (≈ 17 µM)	≥ 10	> 50	2 (≈ 3.41 µM)	2 (≈ 3.41 µM)	0.4 (≈ 0.682 µM)	≥ 10	–	–	–	–	–	–	–	–
COCCO[C@@H](Cn1c(=O)n(C(C)(C)C(=O)N2CCCC2)c(=O)c2c(C)c(-n3nccn3)sc21)c1cc(F)ccc1C [Compound I-249]	2 (≈ 3.34 µM)	10 (≈ 16.7 µM)	≥ 10	> 50	2 (≈ 3.34 µM)	2 (≈ 3.34 µM)	2 (≈ 3.34 µM)	> 50	–	–	–	–	–	–	–	–
COc1ccc(F)cc1[C@H](Cn1c(=O)n([C@H](C)C(=O)N(C)C(C)C)c(=O)c2c(C)c(-n3cccn3)sc21)OCCO [Compound I-250]	2 (≈ 3.4 µM)	2 (≈ 3.4 µM)	> 50	> 50	10 (≈ 17 µM)	2 (≈ 3.4 µM)	2 (≈ 3.4 µM)	> 50	–	–	–	–	–	–	–	–
COc1ccc(F)cc1[C@H](Cn1c(=O)n([C@@H](C)C(=O)NC(C)C)c(=O)c2c(C)c(-n3nccn3)sc21)OCC(C)(C)C#N [Compound I-254]	> 50	> 50	≥ 10	> 50	> 50	2 (≈ 3.27 µM)	2 (≈ 3.27 µM)	> 50	–	–	–	–	–	–	–	–

From US10941157B2, “Pesticidal compositions and uses thereof” (Gilead Apollo, LLC, priority 2015, dated 2021)
